Test results as given in patent US12484575B2, “Mosquito egg cryopreservation” (Sanaria Inc., priority 2019, dated 2025).

Tests used:
[1] = system: larvae of An. gambiae; conditions: used with common methodologies; cited from earlier work
[2] = system: An. stephensi SD500 mosquito eggs; assay: Hatch rate of An. stephensi eggs after two-step CPA incubation, plunge into LN2 and thawing/dilution; type: in vivo, Anopheles stephensi; conditions: for Average ranked score of hatch rates (1 best to 4): thirteen experiments
Method: (§1) CPA was contained in a polypropylene 19 mm diameter×19 mm deep paint mixing pot (Michaels 10271583) embedded in a custom aluminum block machined to cover a Peltier-cooled block (Torrey Pines Scientific, IC22XT). CPA was equilibrated to temperature for >2 h prior to addition of eggs for the first incubation step at −6.8° C. Temperature was monitored using a digital thermometer with type-T thermocouple probe in a control sample in the block. Several relatively low molecular weight CPAs were evaluated at different concentrations for toxicity by incubation at 0° C. for up to 15 minutes, including: dimethylacetamide, dimethylformamide, dimethyl sulphoxide, ethanol, ethylene glycol, formamide, glycerol, H4-methanol (also referred to herein as “methanol”), D4 (deuterated)-methanol, D4/^13C-methanol, methylacetamide, propanediol, (sourced from SigmaAldrich); combinations in different ratios were also evaluated.

[3] = system: Anopheles eggs; assay: Evaluation of low molecular weight CPAs and CPA concentrations for toxicity and egg viability; type: in vivo, Anopheles stephensi
Method: as §1
Percentages (v/v) of methanol and D4-methanol in water solutions were evaluated at between 50% and 100% aqueous CPA, namely, 50%, 70%, and 90%, and compared to CPA concentrations of 100%.

[4] = system: Anopheles eggs; conditions: 100% methanol, 20 minutes at −11° C., after subsequent cooling and warming/dilution
Method: Control eggs warmed/diluted from −11° C. (“Control”); eggs subsequently cooled in LN2 (“LN2”) before warming/dilution.
Once the first larval hatching was recorded, subsequent experiments recorded the percentage of larval hatch rate (number of larvae×100/number of eggs in the Petri dish) on day-3 post-thaw, and this was used as the measure of survival. In experiments measuring full development, the hatched larvae were fed standard larval food, pupae were harvested and transferred to rearing pans in 300×300×300 mm cages for adult mosquito emergence.

[5] = ambient temperatures; cited from earlier work
[6] = system: An. gambiae embryos; conditions: used as permeabilization reagents; cited from earlier work
[7] = 100% CPA, compared with 50%, 70%, 90%

Compound | Toxicity to larvae [1] | Average ranked score of hatch rates (1 best to 4) ([2]; LN2 plunge boiling −196° C.) | Average ranked score of hatch rates (1 best to 4) ([2]; LN2 plunge chilled −202° C.) | Viability of eggs [3, 7] | Viability of eggs ([3]; CPA at 50% v/v in water) | Tolerance by and permeation of untreated eggs ([3]; untreated Anopheles eggs) | Proportion of eggs hatched [4] [%] | Hatch rates versus methanol ([2]; coupled with cooling by plunge into chilled LN2) | Result among the CPAs evaluated ([3]; comparison of low molecular weight CPAs) | Viscosity increase relative to H4-methanol [5] | Toxicity to embryos [6]
OCCO [ethylene glycol, reference compound] | highly toxic | – | – | – | – | – | – | – | – | – | –
CO [Methanol, methanol] | highly toxic | 2.87 | 2.27 | highest | a small percentage of viable eggs | tolerated by, and to permeate, untreated Anopheles eggs | 15.3±4.3 | – | – | – | –
[2H]OC([2H])([2H])[2H] [D4-Methanol, D4-methanol] | – | 2.47 | 2.20 | highest | a small percentage of viable eggs | – | – | marginally improved hatch rates | best results | approximately 11% | –
CCCCCCC [heptane] | – | – | – | – | – | – | – | – | – | – | extremely toxic to the embryos
